Experimental data published in patent US10189841B2, “Purinones as ubiquitin-specific protease 1 inhibitors” (Forma Therapeutics, Inc., priority 2015, dated 2019).

biological target: USP1 (construct USP1 (I-785, GG670, 671AA)/UAF1 (I-677)-Flag) (Homo sapiens (Human), UniProt O94782, G670A/G671A); experiment: Ubiquitin-Rhodamine 110 assay for USP1 activity; assay type: biochemical; conditions: USP1/UAF1 25 pM, Ub-Rh110 25 nM, 30 min preincubation
Protocol: Example 53: Ubitquin-Rhodamine 110 Assay for USP1 Activity
The HTS assay was performed in a final volume of 20 μL in assay buffer containing 20 mM Tris-HCl (pH 8.0, (1M Tris-HCl, pH 8.0 solution; Corning 46-031-CM)), 2 mM CaCl2 (1M Calcium Chloride solution; Sigma #21114) 1 mM GSH (L-Glutathione reduced; Sigma #G4251), 0.01% Prionex ([…] filtered, Sigma #G-0411), and 0.01% Triton X-100. Stock compound solutions were stored at −20° C. as 10 mM in DMSO. Up to 1 month prior to the assay, 2 mM test compounds were pre-dispensed into assay plates (Black, low volume; Corning #3820) and frozen at −20° C. Prestamped assay plates were allowed to come to room temperature on the day of the assay. For the screen, 100 nL of 2 mM was pre-dispensed for a final screening concentration of […] (DMSO(fc)=0.5%). The final concentration of the enzyme (USP1, construct USP1 (I-785, GG670, 671AA)/UAF1 (I-677)-Flag; Viva) in the assay was 100 pM. Final substrate (Ub-Rh110; Ubiquitin-Rhodamine 110, R&D Systems #U-555) concentration was 25 nM with [Ub-Rh110]<<Km. […] Plates were incubated stacked for 45 minutes at room temperature before fluorescence was read on the Envision (Excitation at 485 nm and Emission at 535 nm; Perkin Elmer) or on the PheraSTAR (Excitation at 485 nm and Emission at 535 nm; BMG Labtech)
Nanoliter quantities of either an 8-point or 10-point, 3-fold serial dilution in DMSO was pre-dispensed into assay plates (Perkin Elmer, ProxiPlate-384 F Plus, #6008269) for a final test concentration range of either 25 μM to 11 nM or 25 μM to 1.3 nM, respectively. The final concentration of the enzyme (USP1, construct USP1 (I-785, GG670, 671AA)/UAF1 (I-677)-Flag; Viva) in the assay was 25 pM. Final substrate (Ub-Rh110; Ubiquitin-Rhodamine 110, R&D Systems #U-555) concentration was 25 nM with [Ub-Rh110]<<Km. […] Plates were incubated stacked for 20 minutes at room temperature before 5 μL of stop solution (final concentration of 10 mM citric acid in assay buffer (Sigma, #251275-500G)). Fluorescence was read on the Envision (Excitation at 485 nm and Emission at 535 nm; Perkin Elmer) or on the PheraSTAR (Excitation at 485 nm and Emission at 535 nm; BMG Labtech).
For both assay formats data were reported as percent inhibition compared with control wells based on the following equation: % inh=[1−((FLU−AveLow)/(AveHigh−AveLow))]×100 where FLU=measured Fluorescence, AveLow=average Fluorescence of no enzyme control (n=16), and AveHigh=average Fluorescence of DMSO control (n=16). IC50 values were determined by curve fitting of the standard 4 parameter logistic fitting algorithm included in the Activity Base software package: IDBS XE Designer Model205. Data is fitted using the Levenburg Marquardt algorithm.

Chain of USP1 (construct USP1 (I-785, GG670, 671AA)/UAF1 (I-677)-Flag) (O94782 whole entry G670A/G671A): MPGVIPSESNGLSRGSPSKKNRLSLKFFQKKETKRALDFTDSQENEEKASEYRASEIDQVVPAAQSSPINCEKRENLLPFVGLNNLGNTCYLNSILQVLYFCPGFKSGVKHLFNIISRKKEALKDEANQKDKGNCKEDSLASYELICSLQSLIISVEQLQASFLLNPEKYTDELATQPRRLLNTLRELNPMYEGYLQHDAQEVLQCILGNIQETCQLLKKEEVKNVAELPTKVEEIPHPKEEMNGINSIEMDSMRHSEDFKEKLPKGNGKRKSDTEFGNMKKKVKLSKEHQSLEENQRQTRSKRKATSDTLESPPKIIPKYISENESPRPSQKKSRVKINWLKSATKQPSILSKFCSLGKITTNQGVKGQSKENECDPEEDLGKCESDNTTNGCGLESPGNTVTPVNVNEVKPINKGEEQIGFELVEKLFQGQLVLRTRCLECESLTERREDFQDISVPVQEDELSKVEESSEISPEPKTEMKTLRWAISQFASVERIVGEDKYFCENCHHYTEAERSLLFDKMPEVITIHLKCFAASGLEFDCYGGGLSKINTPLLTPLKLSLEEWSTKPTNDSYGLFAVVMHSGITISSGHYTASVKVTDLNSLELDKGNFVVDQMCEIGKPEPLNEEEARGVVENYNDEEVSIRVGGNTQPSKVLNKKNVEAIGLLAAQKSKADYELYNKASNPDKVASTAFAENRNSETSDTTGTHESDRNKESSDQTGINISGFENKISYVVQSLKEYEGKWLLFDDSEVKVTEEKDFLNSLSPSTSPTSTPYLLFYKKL
Chain of USP1 (construct USP1 (I-785, GG670, 671AA)/UAF1 (I-677)-Flag) (Q8TAF3 whole entry partner): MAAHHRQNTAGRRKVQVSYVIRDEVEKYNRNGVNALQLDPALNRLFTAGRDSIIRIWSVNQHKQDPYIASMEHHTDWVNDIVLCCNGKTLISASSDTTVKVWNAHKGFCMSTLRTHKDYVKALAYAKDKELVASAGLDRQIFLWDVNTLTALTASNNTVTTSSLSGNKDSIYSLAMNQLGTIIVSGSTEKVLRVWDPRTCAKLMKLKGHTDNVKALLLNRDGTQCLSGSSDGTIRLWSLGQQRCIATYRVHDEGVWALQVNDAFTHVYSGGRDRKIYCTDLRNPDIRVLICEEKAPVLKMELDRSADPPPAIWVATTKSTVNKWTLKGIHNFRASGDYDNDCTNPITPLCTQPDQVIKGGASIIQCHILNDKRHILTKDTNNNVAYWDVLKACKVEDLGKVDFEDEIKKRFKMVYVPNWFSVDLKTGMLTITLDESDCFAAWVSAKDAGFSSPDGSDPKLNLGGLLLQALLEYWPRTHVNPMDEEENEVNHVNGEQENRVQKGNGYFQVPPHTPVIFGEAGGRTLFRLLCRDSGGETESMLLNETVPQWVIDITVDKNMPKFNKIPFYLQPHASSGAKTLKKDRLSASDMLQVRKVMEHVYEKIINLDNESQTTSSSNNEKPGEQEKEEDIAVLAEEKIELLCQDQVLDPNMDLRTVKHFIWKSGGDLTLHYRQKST

Row | SMILES | IC50 [nM]
1 | CC(C)c1ccccc1-c1ncc2[nH]c(=O)n(Cc3ccc(-c4cn[nH]c4)cc3)c2n1 [Compound I-539, 9-(4-(1H-Pyrazol-4-yl)benzyl)-2-(2-isopropylphenyl)-7,9-dihydro-8H-purin-8-one] | 200 to 2000
2 | CC(C)c1ccccc1-c1ncc2[nH]c(=O)n(Cc3ccc(-c4cn[nH]n4)cc3)c2n1 [Compound I-523, 9-(4-(1H-1,2,3-triazol-5-yl)benzyl)-2-(2-isopropylphenyl)-7,9-dihydro-8H-purin-8-one] | 50 to 200
3 | CC(C)c1ccccc1-c1ncc2c(n1)n(Cc1ccc(-c3cccc4cnoc34)cc1)c(=O)n2C [Compound I-267, 9-(4-(benzo[d]isoxazol-7-yl)benzyl)-2-(2-isopropylphenyl)-7-methyl-7,9-dihydro-8H-purin-8-one] | 200 to 2000
4 | CC(Oc1ncccc1-c1ncc2[nH]c(=O)n(Cc3ccc(-c4nc(C(F)(F)F)cn4C)cc3)c2n1)C(F)(F)F (stereo not shown) [Compound I-418, 9-(4-(1-methyl-4-(trifluoromethyl)-1H-imidazol-2-yl)benzyl)-2-(2-((1,1,1-trifluoropropan-2-yl)oxy)pyridin-3-yl)-7,9-dihydro-8H-purin-8-one] | < 50
5 | CC(C)c1ccccc1-c1ncc2c(n1)n(Cc1ccc(NC(=O)NC3CC3)cc1)c(=O)n2C [Compound I-483, 1-cyclopropyl-3-(4-((2-(2-isopropylphenyl)-7-methyl-8-oxo-7,8-dihydro-9H-purin-9-yl)methyl)phenyl)urea] | 200 to 2000
6 | COCCn1cc(C(F)(F)F)nc1-c1ccc(Cn2c(=O)[nH]c3cnc(-c4cccnc4C(C)C)nc32)cc1 [Compound I-43, 2-(2-isopropylpyridin-3-yl)-9-(4-(1-(2-methoxyethyl)-4-(trifluoromethyl)-1H-imidazol-2-yl)benzyl)-7,9-dihydro-8H-purin-8-one] | 50 to 200
7 | Cc1nc(-c2ccc(Cn3c(=O)[nH]c4cnc(-c5ccccc5C(C)C)nc43)cc2)c(C)s1 [Compound I-301, 9-(4-(2,5-dimethylthiazol-4-yl)benzyl)-2-(2-isopropylphenyl)-7,9-dihydro-8H-purin-8-one] | < 50
8 | CC(C)c1ccccc1-c1ncc2[nH]c(=O)n(Cc3ccc(-c4nccn5ccnc45)cc3)c2n1 [Compound I-291, 9-(4-(imidazo[1,2-a]pyrazin-8-yl)benzyl)-2-(2-isopropylphenyl)-7,9-dihydro-8H-purin-8-one] | < 50
9 | Cn1cc(C(F)(F)F)nc1-c1ccc(Cn2c(=O)[nH]c3cnc(-c4ccccc4C(C)(C)O)nc32)cc1 [Compound I-525, 2-(2-(2-hydroxypropan-2-yl)phenyl)-9-(4-(1-methyl-4-(trifluoromethyl)-1H-imidazol-2-yl)benzyl)-7,9-dihydro-8H-purin-8-one] | < 50
10 | CC(C)c1ccccc1-c1ncc2[nH]c(=O)n(Cc3ccc(-n4cc(C(C)(C)O)nn4)cc3)c2n1 [Compound I-345, 9-(4-(4-(2-hydroxypropan-2-yl)-1H-1,2,3-triazol-1-yl)benzyl)-2-(2-isopropylphenyl)-7,9-dihydro-8H-purin-8-one] | 200 to 2000
11 | CC(C)c1c(F)cccc1-c1ncc2[nH]c(=O)n(Cc3ccc(-c4nc(C(F)(F)F)cn4C4COC4)cc3)c2n1 [Compound I-201, 2-(3-fluoro-2-isopropylphenyl)-9-(4-(1-(oxetan-3-yl)-4-(trifluoromethyl)-1H-imidazol-2-yl)benzyl)-7,9-dihydro-8H-purin-8-one] | < 50
12 | CC(C)c1ccccc1-c1ncc2c(n1)n(Cc1ccc(-c3ccc(OCCN(C)C)cc3)cc1)c(=O)n2C [Compound I-261, 9-((4′-(2-(dimethylamino)ethoxy)-[1,1′-biphenyl]-4-yl)methyl)-2-(2-isopropylphenyl)-7-methyl-7,9-dihydro-8H-purin-8-one] | 50 to 200
13 | CC(C)c1ccccc1-c1ncc2c(n1)n(Cc1ccc(-c3ncn(C)c3CO)cc1)c(=O)n2C [Compound I-288, 9-(4-(5-(hydroxymethyl)-1-methyl-1H-imidazol-4-yl)benzyl)-2-(2-isopropylphenyl)-7-methyl-7,9-dihydro-8H-purin-8-one] | 200 to 2000
14 | CC(C)c1ccccc1-c1ncc2c(n1)n(Cc1cccc(OCCN(C)C)c1)c(=O)n2C [Compound I-244, 9-(3-(2-(dimethylamino)ethoxy)benzyl)-2-(2-isopropylphenyl)-7-methyl-7,9-dihydro-8H-purin-8-one] | > 2000
15 | CC(C)C(=O)N1CCC(F)(Cn2c(=O)[nH]c3cnc(-c4ccccc4C(C)C)nc32)CC1 [Compound I-475, 9-((4-fluoro-1-isobutyrylpiperidin-4-yl)methyl)-2-(2-isopropylphenyl)-7,9-dihydro-8H-purin-8-one] | > 2000
16 | CC(C)c1ncccc1-c1ncc2c(n1)n(Cc1cc(F)c(-c3nc(C(F)(F)F)cn3C)c(F)c1)c(=O)n2C [Compound I-125, 9-(3,5-difluoro-4-(1-methyl-4-(trifluoromethyl)-1H-imidazol-2-yl)benzyl)-2-(2-isopropylpyridin-3-yl)-7-methyl-7,9-dihydro-8H-purin-8-one] | 50 to 200
17 | Cn1cc(C(F)(F)F)nc1-c1ccc(Cn2c(=O)[nH]c3cnc(-c4ccccc4OC(F)(F)F)nc32)cc1 [Compound I-37, 9-(4-(1-methyl-4-(trifluoromethyl)-1H-imidazol-2-yl)benzyl)-2-(2-(trifluoromethoxy)phenyl)-7,9-dihydro-8H-purin-8-one] | < 50
18 | CC(C)c1ccccc1-c1ncc2[nH]c(=O)n(Cc3ccc(-n4ccc([C@@H]5CCCNC5)n4)cc3)c2n1 [Compound I-224, (R)-2-(2-isopropylphenyl)-9-(4-(3-(piperidin-3-yl)-1H-pyrazol-1-yl)benzyl)-7,9-dihydro-8H-purin-8-one] | 50 to 200
19 | Cn1cc(C(F)(F)F)nc1-c1ccc(Cn2c(=O)[nH]c3cnc(-c4cccnc4OCC(F)(F)F)nc32)cc1 [Compound I-26, 9-(4-(1-methyl-4-(trifluoromethyl)-1H-imidazol-2-yl)benzyl)-2-(2-(2,2,2-trifluoroethoxy)pyridin-3-yl)-7,9-dihydro-8H-purin-8-one] | < 50
20 | COc1nc(-c2ccc(Cn3c(=O)n(C)c4cnc(-c5ccccc5C(C)C)nc43)cc2)nn1C [Compound I-281, 2-(2-isopropylphenyl)-9-(4-(5-methoxy-1-methyl-1H-1,2,4-triazol-3-yl)benzyl)-7-methyl-7,9-dihydro-8H-purin-8-one] | < 50
21 | Cn1cc(C(F)(F)F)nc1-c1ccc(Cn2c(=O)n(C)c3cnc(-c4cccnc4N4CC(F)(F)C4)nc32)cc1 [Compound I-135, 2-(2-(3,3-difluoroazetidin-1-yl)pyridin-3-yl)-7-methyl-9-(4-(1-methyl-4-(trifluoromethyl)-1H-imidazol-2-yl)benzyl)-7,9-dihydro-8H-purin-8-one] | 50 to 200
22 | COCCn1cc(-c2ccc(Cn3c(=O)[nH]c4cnc(-c5ccccc5C(C)C)nc43)cc2)cn1 [Compound I-518, 2-(2-Isopropylphenyl)-9-(4-(1-(2-methoxyethyl)-1H-pyrazol-4-yl)benzyl)-7,9-dihydro-8H-purin-8-one] | 50 to 200
23 | CC(C)c1ncccc1-c1ncc2c(n1)n(C1(c3ccc(-c4nc(C(F)(F)F)cn4C)cc3)CC1)c(=O)n2C [Compound I-108, 2-(2-isopropylpyridin-3-yl)-7-methyl-9-(1-(4-(1-methyl-4-(trifluoromethyl)-1H-imidazol-2-yl)phenyl)cyclopropyl)-7,9-dihydro-8H-purin-8-one] | < 50
24 | CC(C)c1ncccc1-c1ncc2c(n1)n(Cc1ccc(-c3nc(C(F)(F)F)cn3C)c(F)c1)c(=O)n2C [Compound I-126, 9-(3-fluoro-4-(1-methyl-4-(trifluoromethyl)-1H-imidazol-2-yl)benzyl)-2-(2-isopropylpyridin-3-yl)-7-methyl-7,9-dihydro-8H-purin-8-one] | < 50
25 | CC(C)c1ccccc1-c1ncc2[nH]c(=O)n([C@@H](C)c3ccccc3)c2n1 [Compound I-156, (S)-2-(2-isopropylphenyl)-9-(1-phenylethyl)-7,9-dihydro-8H-purin-8-one] | > 2000
